Data published in patent US20250186446A1, “ORGANIC COMPOUNDS” (INTRA-CELLULAR THERAPIES, INC., priority 2022, published 2025).

Experiments:
Assay type in all cases: in vivo, mouse
[1] = LC/MS/MS quantification of drug exposure in 4T1 tumor-bearing mice; conditions: in absence or presence of anti-PD1
Experimental: (§1) Tumor, liver, and feces samples are diluted in phosphate buffer and homogenized using ultrasonic processor. Plasma and homogenized tissue samples along with a set of standard and quality control samples are extracted by way of protein precipitation technique on Ostro plate (Waters) using 1% formic acid in acetonitrile spiked with internal standard. 2 μL of the filtered samples are injected using an autosampler and separated chromatographically using a Phenomenex, Synergi™, […], 50×3 mm, Polar-RP column, isocratic mobile phase combination of 0.1% formic acid in water and 0.1% formic acid in acetonitrile (40/60) with flow rate of 0.8 mL/min. The Sciex Qtrap 6500 mass spectrometer is used as the detector with positive electrospray in MRM ionization mode and an ion source temperature of 650° C. Quantification of Compound A is carried out using a calibration curve established with standards for the corresponding analyte concentration, retention time and mass profile.

[2] = system: 4T1 murine breast cancer cells; test: 4T1 syngeneic breast cancer tumor growth and survival in mice; conditions: 4T1 tumors
Experimental: (§2) 4T1 murine breast cancer cells are obtained from the American Type Culture Collection (ATCC) and maintained in RPMI medium containing 10% fetal bovine serum, 4 mM glutamine, and 1% penicillin/streptomycin. The cells were cultured in tissue culture flasks in a humidified incubator at 37° C., in an atmosphere of 5% CO2 and 95% air. The 4T1 tumor cells used for implantation are harvested and re-suspended at a concentration of 50×10^3 cells/mL in cold PBS. Nine weeks old female Balb/c mice (Balb/cJ, Jackson Laboratory) are injected subcutaneously in the right flank with 10×10^3 cells in 0.2 mL cold PBS. […] Mice are randomized in groups after the tumors are measured with a caliper in two dimensions to monitor size. Tumor size is calculated using the formula: Tumor Volume (mm^3)=(w^2×1)/2 where w=width and l=length, in mm. Tumors are measured twice per week for the duration of the study. Each mouse is euthanized as it reached a tumor volume endpoint of 1500 mm^3 or if they show any type of discomfort, whichever comes first.
(§3) The anti-PD-1 RMP1-14 (Lot No. 800121F12A) and isotype (Lot No. 749620N1) antibody are purchased from BioXCell. The stock solution is diluted in PBS to yield a dosing solution of 0.1 or 1 mg/mL, which delivered 1 or 10 mg/kg respectively in a dosing volume of 0.2 mL (10 mL/kg, for a […]). Mice are administered isotype or anti-PD-1 RMP1-14 intraperitoneally in 0.2 mL (10 mL/kg, for a […]) twice a week.
as §2, with “(mm^3) (w^2×1)/2” for “(mm^3)=(w^2×1)/2”

[3] = system: E0771 murine breast cancer cells; test: E0771 syngeneic breast cancer tumor growth in mice; conditions: E0771 tumors
Experimental: E0771 murine breast cancer cells are obtained from the American Type Culture Collection (ATCC) and maintained in DMEM medium containing 10% fetal bovine serum, 4 mM glutamine, 20 mM HEPES, and 1% penicillin/streptomycin. The cells are cultured in tissue culture flasks in a humidified incubator at 37° C., in an atmosphere of 5% CO2 and 95% air. The E0771 tumor cells used for implantation are harvested and re-suspended at a concentration of 2.5×10^6 cells/mL in cold PBS. Nine weeks old female C57Bl/6 mice (C57Bl/6J, Jackson Laboratory) are injected subcutaneously in the right flank with 0.5×10^6 cells in 0.2 mL cold PBS. 10 days later the mice have a palpable size tumor, and specified size to start treatments (around 100 mm^3). Mice are randomized in groups after the tumors are measured with a caliper in two dimensions to monitor size. Tumor size is calculated using the formula: Tumor Volume (mm^3)=(w^2×1)/2 where w=width and l=length, in mm. Tumors are measured twice per week for the duration of the study. Each mouse is euthanized as it reached a tumor volume endpoint of 1500 mm^3 or if they show any type of discomfort, whichever comes first.
[…] Compound A is synthesized at Intra-Cellular Therapies Inc. Compound A diets are used to treat mice. Compound A diet 900 ppm (diet supplements 900 mg of Compound A per kg to Picolab Rodent Diet 5053) is produced by Envigo (Madison WI). Mice are dosed 5 days a week with vehicle or Compound A.
as §3
Mice are treated with Compound B alone, anti-PD-1 antibody alone, or the combination of Compound B and anti-PD-1 antibody. Compound B is synthesized at Intra-Cellular Therapies Inc. Compound B diets are used to treat mice. […]

[4] = LC/MS/MS quantification of drug exposure in E0771 tumor-bearing mice
Experimental: as §1
Tumor, liver, and feces samples are diluted in phosphate buffer and homogenized using ultrasonic processor. […] Quantification of Compound B is carried out using a calibration curve established with standards for the corresponding analyte concentration, retention time and mass profile.

[5] = Example 2, Compound A 300 ppm or 900 ppm in diet, monotherapy or with anti-PD1 10 mg/kg

exposure in plasma and tissues ([1]; Example 4, Compound B in diet)	exposure in plasma and tissues ([4]; Example 3, Compound B in diet, in absence or presence of anti-PD1)	Structure (SMILES)	exposure in plasma and tissues ([1]; Example 2, Compound A in diet)	survival of animals [2, 5]	tumor volume or weight relative to isotype (control) [2, 5]	tumor volume ([3]; Example 1, C57Bl/6 mice, Compound A 900 ppm in diet, anti-PD1 10 mg/kg ip, alone or combined, day 3, 7, 10, 14, 17, vs isotype control)	tumor weight at terminal sacrifice ([3]; Example 1, Compound A 900 ppm in diet, anti-PD1 10 mg/kg, alone or combined, treatment day 17, vs isotype control)	drug exposures in plasma, tissues, and feces ([4]; Example 1, Compound A 900 ppm in diet, all groups receiving Compound A)	tumor volume ([2]; Example 4, Compound B 100, 300 or 900 ppm in diet, anti-PD1 10 mg/kg, alone or combined, anti-PD1 alone: after day 5, vs isotype and/or anti-PD1 alone)	tumor weight at terminal sacrifice ([2]; Example 4, Compound B 100, 300 or 900 ppm in diet, anti-PD1 10 mg/kg, alone or combined, treatment day 14, vs isotype and/or anti-PD1 alone)	tumor volume or weight relative to isotype (control) and/or anti-PD1 alone ([3]; Example 3, Compound B 100, 300 or 900 ppm in diet, monotherapy or with anti-PD1 1 mg/kg)
–	–	CN1C(=O)c2c(nn(Cc3ccc(-c4cccc(F)n4)cc3)c2Nc2ccccc2)N2C1=N[C@@H]1CCC[C@@H]12 [Compound A]	comparable	improved	significantly reduce	Neither Compound A (900 ppm) treatment alone nor anti-PD-1 antibody (10 mg/kg) treatment alone shows a significant effect	Neither Compound A (900 ppm) treatment alone nor anti-PD-1 antibody (10 mg/kg) treatment alone shows a significant effect	comparable	–	–	–
comparable	comparable	CC(=O)c1ccc(Cn2nc3c(c2Nc2ccc(F)cc2)C(=O)N(C)C2=NC(C)(C)CN23)cc1 [Compound B]	–	–	–	–	–	–	significantly reduces	significantly reduces	significantly reduces
